Measured values published in patent publication US11512053B2, “Arginine methyltransferase inhibitors and uses thereof” (priority 2013, dated 2022).
Where a name gives a salt, the structure may show the parent alone. Read-outs that look alike come from different tables or passages of the source.

Assays:
[1] = target: full-length human PRMT8 isoform 1 (Homo sapiens, UniProt Q9NR22); experiment: PRMT8 Biochemical Assay (3H-SAM Flashplate, peptide substrate); conditions: read-out: Biochemical IC50 PRMT8
full-length human PRMT8 isoform 1, sequence (Q9NR22 whole entry, canonical isoform): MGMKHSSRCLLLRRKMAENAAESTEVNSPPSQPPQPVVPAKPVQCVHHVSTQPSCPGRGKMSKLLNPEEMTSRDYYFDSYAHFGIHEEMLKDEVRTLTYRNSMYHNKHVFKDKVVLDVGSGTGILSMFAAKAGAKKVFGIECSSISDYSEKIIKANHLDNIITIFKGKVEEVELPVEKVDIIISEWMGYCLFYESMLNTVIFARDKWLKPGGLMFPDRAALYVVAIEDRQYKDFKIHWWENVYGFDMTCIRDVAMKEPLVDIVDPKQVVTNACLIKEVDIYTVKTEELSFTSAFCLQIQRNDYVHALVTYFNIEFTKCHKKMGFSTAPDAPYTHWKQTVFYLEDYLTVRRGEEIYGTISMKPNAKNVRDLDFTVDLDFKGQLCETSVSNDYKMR
Method in brief: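 Full-length human PRMT8 (1.5 nM, E. coli-expressed, GST removed) preincubated 30 min at room temperature with compound, then reacted with 50 nM 3H-SAM plus 550 nM cold SAM and 150 nM biotinylated H4 31-45 peptide in 20 mM Bicine pH 7.6, 1 mM TCEP, 0.005% BSG, 0.002% Tween 20, 2% DMSO. Quenched with 400 uM cold SAM; labelled peptide captured on streptavidin Flashplate, % inhibition versus 1 mM SAH and DMSO controls fitted to 4- or 3-parameter curve.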

[2] = target: full-length human PRMT1 isoform 1 (GST-tagged) (Homo sapiens, UniProt Q99873); experiment: PRMT1 Biochemical Assay (3H-SAM Flashplate, peptide substrate)
full-length human PRMT1 isoform 1 (GST-tagged), sequence (Q99873 with tags, fused parts or gaps): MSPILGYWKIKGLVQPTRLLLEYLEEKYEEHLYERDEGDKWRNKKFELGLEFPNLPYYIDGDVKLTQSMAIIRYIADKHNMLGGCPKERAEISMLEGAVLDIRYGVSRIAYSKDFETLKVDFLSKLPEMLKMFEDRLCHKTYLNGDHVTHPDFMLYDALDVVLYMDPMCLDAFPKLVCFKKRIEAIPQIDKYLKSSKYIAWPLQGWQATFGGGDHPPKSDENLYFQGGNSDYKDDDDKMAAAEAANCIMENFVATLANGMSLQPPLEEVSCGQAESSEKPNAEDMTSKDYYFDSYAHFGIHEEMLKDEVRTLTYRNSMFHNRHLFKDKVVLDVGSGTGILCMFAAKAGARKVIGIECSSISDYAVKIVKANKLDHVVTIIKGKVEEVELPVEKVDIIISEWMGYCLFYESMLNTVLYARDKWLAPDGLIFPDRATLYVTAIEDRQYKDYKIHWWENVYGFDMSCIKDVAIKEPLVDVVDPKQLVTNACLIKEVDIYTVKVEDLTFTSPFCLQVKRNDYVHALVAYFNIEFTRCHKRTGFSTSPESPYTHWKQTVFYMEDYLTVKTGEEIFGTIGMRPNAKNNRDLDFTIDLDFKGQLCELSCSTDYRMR
Method in brief: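 GST-tagged full-length PRMT1 from baculovirus-infected cells, preincubated 30 min at room temperature with compound in 20 mM Bicine pH 7.6, TCEP, BSG, Tween 20. Reaction started with 3H-SAM plus biotinylated peptide, stopped with 300 uM unlabelled SAM. Streptavidin Flashplate capture and scintillation counting; % inhibition curve-fitted for IC50.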

[3] = single experiment or average of multiple experiments

Structure (SMILES)	IC50 [1] [nM]	IC50 [1, 3] [nM]	IC50 [2] [nM]	IC50 [2, 3] [nM]
CNCCN(C)Cc1c[nH]nc1C1CCC(=O)CC1 [Compound 194]	< 100	35.3	< 100	14.5
CNCCN(C)Cc1c[nH]nc1[C@H]1CC[C@@H](N(CCCOC)C(=O)CCC(C)C)CC1 [Compound 244]	101 to 1000	113	< 100	39.8
CCC(=O)N(CCOc1ccccc1)[C@H]1CC[C@H](c2n[nH]cc2CN(C)CCNC)CC1 [Compound 221]	< 100	15.4	< 100	6.44
CNCCN(C)Cc1c[nH]nc1C1CCC(=O)N(CCCOC)C1 (centres unmarked) [Compound 190]	101 to 1000	352	101 to 1000	124
CNCCN(C)Cc1c[nH]nc1[C@H]1CC[C@H](N(CCOc2ccccc2)C(=O)CC(C)C)CC1 [Compound 223]	< 100	8.65	< 100	6.65
CNCCN(C)Cc1c[nH]nc1[C@H]1CC[C@H](N(CC(C)C)C(=O)CCCOC)CC1 [Compound 249]	< 100	84.5	< 100	24.2
CNCCN(C)Cc1c[nH]nc1[C@H]1CC[C@H](C(=O)NCCOc2ccccc2)CC1 [Compound 211]	< 100	10	< 100	8.28
CNCCN(C)Cc1c[nH]nc1[C@H]1CC[C@]2(CCOC2(C)C)CC1 [Compound 253]	< 100	11.7	< 100	7.15
CNCCN(C)Cc1c[nH]nc1[C@H]1CC[C@]2(CCCO2)OC1 [Compound 198]	3010 to 10000	≥ 10000	3010 to 10000	≥ 10000
CNCCN(C)Cc1c[nH]nc1[C@H]1CC[C@H](N(CCC(C)C)C(=O)CCOC)CC1 [Compound 236]	< 100	57.8	< 100	29
CNCCN(C)Cc1c[nH]nc1[C@H]1CC[C@@H](N(CC(C)C)C(=O)CCOC)CC1 [Compound 233]	< 100	42.7	< 100	20.7
CNCCN(C)Cc1c[nH]nc1[C@H]1CC[C@H](N(CC(C)C)C(=O)CCOC)CC1 [Compound 234]	< 100	42.8	< 100	16.1
CNCCN(C)Cc1c[nH]nc1[C@H]1CC[C@H](N(CCCOC)C(=O)CCOc2ccccc2)CC1 [Compound 247]	< 100	16.4	< 100	11.1
CN(CCN)Cc1c[nH]nc1[C@H]1CC[C@@]2(CC1)CC(C)(C)CO2 [Compound 207]	< 100		< 100	
CNCCN(C)Cc1c[nH]nc1[C@H]1CC[C@H](C(=O)N(C)CC(C)C)CC1 [Compound 226]	< 100	57.6	< 100	33.1
CNCCN(C)Cc1n[nH]cc1[C@H]1CC[C@]2(CC1)CC(C)(C)CO2 [Compound 201]	< 100		< 100	
CNCCN(C)Cc1c[nH]nc1[C@H]1CC[C@H](N(CCOc2ccccc2)C(=O)CCOC)CC1 [Compound 219]	< 100	15	< 100	8.96
CN(CCN)Cc1c[nH]nc1[C@H]1CC[C@]2(CC1)CC(C)(C)CO2 [Compound 208]	< 100	12.8	< 100	6.94

Structure (SMILES)	IC50 [1] [nM]	IC50 [1, 3] [nM]	IC50 [2] [nM]	IC50 [2, 3] [nM]
CNCCN(C)Cc1c[nH]nc1[C@H]1CC[C@@H](C(=O)N(C)CC(C)C)CC1 [Compound 215]	< 100	23	< 100	14.1
CNCCN(C)Cc1c[nH]nc1[C@H]1CC[C@H](N(CC(C)C)C(=O)CCCOC)CC1 [Compound 248]	< 100	28.2	< 100	13.2
CNCCN(C)Cc1n[nH]cc1[C@H]1CC[C@H](C(=O)NCCC(C)C)CC1 [Compound 203]	< 100	84.4	< 100	28.4
CCN(C(=O)CC1CCOCC1)[C@H]1CC[C@H](c2n[nH]cc2CN(C)CCNC)CC1 [Compound 195]	< 100	35.6	< 100	14.4
CCN(C(=O)CCOc1ccccc1)[C@H]1CC[C@H](c2n[nH]cc2CN(C)CCNC)CC1 [Compound 225]	< 100	13.9	< 100	7.62
CNCCN(C)Cc1c[nH]nc1[C@H]1CC[C@@H](N(CCCOC)C(=O)CC(C)C)CC1 [Compound 242]	< 100	83.7	< 100	28.3
CCN(C(=O)CCC(C)C)[C@H]1CC[C@H](c2n[nH]cc2CN(C)CCNC)CC1 [Compound 250]	< 100	42.4	< 100	24
CCOCC1CC(c2n[nH]cc2CN(C)CCNC)CCC1(C)C (centres unmarked) [Compound 202]	< 100	26.9	< 100	12.7
CNCCN(C)Cc1c[nH]nc1[C@H]1CC[C@H](N(CCCOC)C(=O)CCC(C)C)CC1 [Compound 243]	< 100	70.8	< 100	32.4
CNCCN(C)Cc1n[nH]cc1[C@H]1CC[C@@]2(CC1)CC(C)(C)CO2 [Compound 200, Methyl[2-(methylamino)ethyl]([4-[(5S,8S)-3,3-dimethyl-1-oxaspiro[4.5]decan-8-yl]-1H-pyrazol-3-yl]methyl)amine trifluoroacetic acid salt]	< 100		< 100	
CNCCN(C)Cc1c[nH]nc1[C@H]1CC[C@H](N(CCCOC)C(=O)CC(C)C)CC1 [Compound 241]	< 100	48.9	< 100	22.4
CNCCN(C)Cc1c[nH]nc1C1CCC(=O)N(Cc2ccc(C(F)(F)F)cc2)C1 (centres unmarked) [Compound 191]	101 to 1000	152	< 100	50.4
CNCCN(C)Cc1c[nH]nc1[C@H]1CC[C@@H](C(=O)NCCC(C)C)CC1 [Compound 204]	< 100	51.6	< 100	18.4
CNCCN(C)Cc1cn(C)nc1[C@H]1CC[C@@]2(CC1)CC(C)(C)CO2 [Compound 205, Methyl([1-methyl-3-[(5S,8S)-3,3-dimethyl-1-oxaspiro[4.5]decan-8-yl]-1H-pyrazol-4-yl]methyl)[2-(methylamino)ethyl]amine hydrochloride]	< 100	15.4	< 100	12.8
CNCCN(C)Cc1c[nH]nc1[C@H]1CC[C@@H](C(=O)NCCOc2ccccc2)CC1 [Compound 212]	< 100	8.28	< 100	5.57
CNCCN(C)Cc1c[nH]nc1[C@H]1CC[C@@]2(CCC(C)(C)O2)CC1 [Compound 260]	< 100	37.3	< 100	20.2
CNCCN(C)Cc1c[nH]nc1[C@H]1CC[C@@H](O)CC1 [Compound 217, 4-[4-([methyl[2-(methylamino)ethyl]amino]methyl)-1H-pyrazol-3-yl]cyclohexan-1-ol trifluoroacetate]	< 100	59.5	< 100	30.2
